For data set [1] the following is noted: literature values; cited from earlier work.
For data set [2] the following is noted: 95° C. for several days; cited from earlier work.
The test system of another data set is pUC118. The data set can be described thus: Photochemical DNA cleavage by Cu(II) diazo complex, agarose gel (Example VI). The class given is biochemical. The note with it: 25 μm, 20° C.; for DNA forms in thermal and photochemical control studies: 1 hour incubation or 455 nm light, lanes 3-11. As to the method:
FIG. 10 illustrates DNA-cleavage of 50 μM pUC 118 plasmid DNA by bis(9-diazo-4,5-diazafluorene)copper(II) nitrate following 455 nm photolysis for 1 hour at 20° C. pursuant to 2% agarose gel electrophoresis.
FIG. 10 illustrates the DNA cleavage of 50 μM pUC118 by this compound following 455 nm photolysis for 1 hour at 20° C. (agarose gel, 2%).
Three forms of […] plasmid DNA were prepared for use in the […] assay. Form I was supercoiled plasmid. Form II was nicked plasmid. Form III was linear plasmid. The three plasmid forms were subjected to 11 lanes of varying conditions. Lane 1 pertained to the DNA forms alone. Lane 2 involved an EcoR1 digest of the DNA, which was used as a marker. In lane 3, the DNA was subjected for 1 hour to light at a wavelength of 455 nm. In lane 4, the DNA was subjected to 25 μm Cu(II) (diazafluorenone)2^2+ for 1 hour incubation. In lane 5, the DNA was subjected to 25 μm Cu(II) (diazafluorenone)2^2+ in the presence of light at a wavelength of 455 nm for 1 hour. Lane 6 subjected the DNA to 25 μm of 9-diazafluorene in the presence of light at a wavelength of 455 nm for 1 hour. In lane 7, the DNA was subjected to 25 μm 9-diazo-4,5-diazafluorene in the presence of light at a wavelength of 455 nm for 1 hour. In lane 8, the DNA was subjected to 25 μm bis(9-diazo-4,5-diazafluorene)copper(II) nitrate rapid quench. In lane 9, the DNA was subjected to 25 μm bis(9-diazo-4,5-diazafluorene)copper(II) nitrate for 1 hour incubation. In lane 10, the DNA was subjected to 25 μm bis(9-diazo-4,5-diazafluorene)copper(II) nitrate for 1 hour incubation at 37° C. In lane 11, the DNA was subjected to 25 μm bis(9-diazo-4,5-diazafluorene)copper(II) nitrate for 1 hour at a wavelength of 455 nm.

A short description of data set [3]: Anaerobic photolysis in acetonitrile at 345 nm and 455 nm monitored by UV/Vis spectrophotometry. The data set is classed as physicochemical. The note with it: for Photolysis reactivity of free ligand / kobs of photolysis (first order): acetonitrile; for kobs of photolysis (first order): anaerobic. As to the method: FIG. 7 depicts electronic absorption profiles of anaerobic photolyses of […] acetonitrile solutions of compound 5 at: (a) 345 nm; and (b) 455 nm.
Although the CT excited states appeared to satisfy the energy requirement, it was unknown if sufficient excited state lifetime existed to drive photodecomposition of the ligand. […] In both cases, significant photobleaching was observed, consistent with formation of Fe(II) in solution. This observation was further supported by the reemergence of color following aerial oxidation.
This can be attributed to the greater extinction coefficient at 345 nm (ε=9000 M^−1cm^−1) relative to 455 nm (ε=5450 M^−1cm^−1), and the simultaneous excitation of the LMCT and n-π* transitions of the Fe(III) compound, both of which lead to denitrogenation.
To investigate this dual state hypothesis, identical photolyses were carried out on solutions of 4 in acetonitrile.

A further data set deals with pUC 118 plasmid DNA. The data set can be described thus: Photoinduced cleavage of pUC 118 plasmid DNA by compound 5, agarose gel electrophoresis (Example IV). The data set is classed as biochemical. As to the method:
FIG. 8 illustrates the photoinduced DNA-cleavage of 30 μM/bp of pUC 118 plasmid DNA by 300 μM of compound 5 following 400 nm photolysis for 12 hours at 20° C. pursuant to 2% agarose gel electrophoresis.
Cleavage ability was determined by its effectiveness in converting circular supercoiled DNA (form I) to circular relaxed DNA (form II) and linear DNA (form III). FIG. 8 illustrates the agarose gel electrophoresis of photolysis products of 300 μM 5 in the presence of pUC 118 plasmid DNA (30 μM/bp). Solutions were irradiated for 12 hours in 1:9 DMSO:Tris buffer (20 mM, pH 7.55) at 400 nm. Photolyses were performed at 400 NM (rather than 455 NM) due to a soluatochronic blue shift in the optical absorption spectrum.

The nature of data set [4]: N2 extrusion on photolysis, headspace GC/MS. The class given is physicochemical. The settings on record: degassed benzonitrile under argon, average of 4 trials. As to the method:
To correlate the observed reactivity with N2 extrusion, a series of wavelength dependent photolyses were performed on 800 μL solutions of 5 under argon in degassed benzonitrile. From headspace GC/MS analysis, N2 production was gauged by comparison of the N2/O2 ratios above the photolyzed samples relative to unphotolyzed controls. […] Taken together, these experiments provide compelling evidence that the overall strategy to induce radical formation from CT excited states is indeed operative.

Data set [5] can be described thus: Thermal reactivity of Pd metalloenediynes. The data set is classed as physicochemical. The settings on record: room temperature. As to the method: The thermal reactivity of the complex was as follows. […] The reaction was followed by ^31p NMR analysis. The chemical shift of the complex was −5.71 ppm while that of the free ligand was −32.1 ppm. After 11 hours, there was evidence of the complex, free ligand, and 2 other resonances at −10.6 ppm and 25.4 ppm. […] A shift downfield was expected for the cyclized product and this could help explain the resonance at 25.4 ppm. […] What may have happened is that a ligand dissociated from the metal after cyclizing (−10.6 ppm) and then it reassociated with the metal (25.5 ppm). From the crystal structure, the environment around the metal was strained as is evident in the Pd—P—C bending. Additionally, the bite-angle of the resulting cyclized product, 1,2-bis(diphenylphosphino)naphthalene, would be smaller than that which would be required for tetrahedral geometry. This dissociation/reassociation may be slow enough to be detected on the NMR timescale.
Although crystallographic structural characterization of Pd(dppeb)Cl2 is unavailable, the d^8 Pd2^+ geometry is likely square planar with P—Pd—P angles near 90° which would reduce the alkyne carbon termini distances and lower the thermal barrier to cyclization. […]

In a further data set the test system is HIV. The note with it: human, in vivo; cited from earlier work.

The structures appear in SMILES notation. “Also recorded” adds a separate entry of the source.

For `C(#CP(c1ccccc1)c1ccccc1)c1ccccc1C#CP(c1ccccc1)c1ccccc1`, in data set [1], the “Bergman cyclization temperature reported in the literature” value is 243 °C. Also, the “Thermal stability in the presence of a hydrogen donor” value in data set [2] is listed as “stable”.

On to `[N-]=[N+]=C1c2cccnc2-c2ncccc21` [9-diazo-4,5-diazafluorene, reference compound], for which the “DNA forms in thermal and photochemical control studies” value in the data set with pUC118 is “very small and comparable amounts of the nicked form; also recorded: did not exhibit any preferential thermal or photochemical DNA cleavage”.

On to `O=c1c2ccccc2nnn1O` [Compound 4, 3-Hydroxy-1,2,3-benzotriazine-4(3H)-one, reference compound], for which the “Photolysis reactivity of free ligand” value in data set [3] (345 nm) is reported as “noticeably reduced reaction rate”; in data set [3] (455 nm), “no reactivity”. For the same molecule, the “DNA forms produced by photolysis of free ligand” value with pUC 118 plasmid DNA (900 μM free ligand, 400 nm, 12 hours, lane 6) was “a small amount of form II”.

With `O=c1c2ccccc2nnn1[O-].O=c1c2ccccc2nnn1[O-].O=c1c2ccccc2nnn1[O-].[Fe+3]` [Compound 5, Fe(3-Hydroxy-1,2,3-benzotriazine-4(3H)-one)3], the figures for the “Increased N2 content versus unphotolyzed controls” value in data set [4] (345 nm) and in data set [4] (455 nm) were 112% and 9.7%, respectively. Moreover, the “Wavelength up to which reactivity was demonstrated” value in data set [3] is on record as “up to 515 nm”. The “kobs of photolysis (first order)” value was 0.093 min⁻¹ in data set [3] (345 nm) and 0.004 min⁻¹ in data set [3] (455 nm). Moreover, the “DNA forms produced by photolysis (form I supercoiled, form II nicked, form III linear)” value in the data set with pUC 118 plasmid DNA (300 μM 5, pUC 118 30 μM/bp, 400 nm, 12 hours, 1:9 DMSO:Tris buffer (20 mM, pH 7.55), lane 3) is “a mixture of linear and nicked forms”. The “DNA cleavage on thermal incubation” value in the data set on pUC 118 plasmid DNA (similar thermal incubation without light, lane 4) is given as “no DNA cleavage”.

As to `C(#CP(c1ccccc1)c1ccccc1)c1ccccc1C#CP(c1ccccc1)c1ccccc1.C(#CP(c1ccccc1)c1ccccc1)c1ccccc1C#CP(c1ccccc1)c1ccccc1.[Pd]` [Pd(dppeb)2], the Thermal stability result in data set [5] is reported as “stable at room temperature”.

For the molecule `O=[N+]([O-])[O-].O=[N+]([O-])[O-].[Cu+2].[N-]=[N+]=C1c2cccnc2-c2ncccc21.[N-]=[N+]=C1c2cccnc2-c2ncccc21` [bis(9-diazo-4,5-diazafluorene)copper(II) nitrate], in the data set on pUC118, the “DNA forms in thermal and photochemical control studies” value was “very small and comparable amounts of the nicked form”. Moreover, in the data set with pUC118 (455 nm, 1 hour, 10 mM Tris pH 7.6, 50 μM pUC118, lane 11), the “DNA forms after photolysis” value is listed as “predominantly nicked DNA with a moderate amount of the linear form”.

On to `Nc1ccn([C@H]2CC[C@@H](CO)O2)c(=O)n1` [ddC, 2′3′-dideoxycytidine], for which the “Virustatic range in most patients” value with HIV is reported as 0.005-0.25 mg/kg body weight.

Values taken from patent US6828439B1, “Compounds, composition, and methods for photodynamic therapy” (Advanced Research and Technology Institute, Inc., priority 1999, dated 2004).
